Legend:
[1] = system: large (Lg) crabgrass; test: Test A preemergence; assay type: in vivo, Digitaria sanguinalis; settings: for Crabgrass, Large plant response rating: 500 g ai/ha, approx. 10 days
How it was run: (§1)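 Compounds in non-phytotoxic solvent with surfactant applied as soil spray preemergence, or postemergence to plants 2-10 cm at one- to two-leaf stage, in loam/sand. After approximately 10 days in greenhouse, injury rated visually versus untreated controls, 0 (no effect) to 100 (complete control).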

[2] = system: pigweed; test: Test A preemergence; assay type: in vivo, Amaranthus retroflexus; settings: for Plant response rating, Pigweed: 125 g ai/ha, 0 to 100 scale where 0 is no effect and 100 is complete control; for Pigweed plant response rating: 0 to 100 scale, 0 no effect, 100 complete control, approx. 10 days
How it was run: as §1

[3] = system: blackgrass; test: Test C postemergence; assay type: in vivo, Alopecurus myosuroides; settings: for Plant response rating (0 to 100), Blackgrass: postemergence; for Plant response rating, Blackgrass: Postemergence, scale 0 to 100 (0 no effect, 100 complete control)
How it was run: (§2)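 Plants were kept under greenhouse conditions for 13–15 days following spray. Pre-emergent application went to soil (loam–sand), post-emergent to foliage at 1–4 leaves. Evaluation: visual, percent control against untreated checks.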

[4] = system: wheat, winter; test: Test C postemergence; assay type: in vivo, Triticum aestivum; settings: for Plant response rating (0 to 100), Wheat: postemergence; for Plant response rating, Wheat: Postemergence, scale 0 to 100 (0 no effect, 100 complete control)
How it was run: as §2

[5] = system: corn; test: Test C postemergence; assay type: in vivo, Zea mays; settings: for Plant response rating (0 to 100), Corn: postemergence; for Plant response rating, Corn: Postemergence, scale 0 to 100 (0 no effect, 100 complete control)
How it was run: as §2

[6] = system: giant foxtail; test: Test C postemergence; assay type: in vivo, Setaria faberii; settings: for Plant response rating (0 to 100), Foxtail, Giant: postemergence; for Plant response rating, Foxtail, Giant: Postemergence, scale 0 to 100 (0 no effect, 100 complete control)
How it was run: as §2

[7] = system: yellow nutsedge; test: Test C postemergence; assay type: in vivo, Cyperus esculentus; settings: for Plant response rating (0 to 100), Nutsedge, Yellow: postemergence; for Plant response rating, Nutsedge, Yellow: Postemergence, scale 0 to 100 (0 no effect, 100 complete control)
How it was run: as §2

[8] = system: barnyardgrass; test: Test C postemergence; assay type: in vivo, Echinochloa crus-galli; settings: for Plant response rating (0 to 100), Barnyardgrass: postemergence; for Plant response rating, Barnyardgrass: Postemergence, scale 0 to 100 (0 no effect, 100 complete control)
How it was run: as §2

[9] = system: wild oat; test: Test C postemergence; assay type: in vivo, Avena fatua; settings: for Plant response rating (0 to 100), Oat, Wild: postemergence; for Plant response rating, Oat, Wild: Postemergence, scale 0 to 100 (0 no effect, 100 complete control)
How it was run: as §2

[10] = system: chickweed; test: Test C postemergence; assay type: in vivo, Stellaria media; settings: for Plant response rating (0 to 100), Chickweed: postemergence; for Plant response rating, Chickweed: Postemergence, scale 0 to 100 (0 no effect, 100 complete control)
How it was run: as §2

[11] = 125 g ai/ha, 0 to 100 scale where 0 is no effect and 100 is complete control
[12] = 0 to 100 scale, 0 no effect, 100 complete control
[13] = 4 g ai/ha, 0 is no effect, 100 is complete control
[14] = 8 g ai/ha, 0 is no effect, 100 is complete control
[15] = 16 g ai/ha, 0 is no effect, 100 is complete control

N#Cc1cccc(Oc2ncc(Cl)cn2)c1-n1cnc(Br)c1 [Compound 74]
Plant response rating, Crabgrass, Large [1, 11]: 100 | Crabgrass, Large plant response rating [1, 12]: 100 | Plant response rating, Pigweed [2]: 100 | Pigweed plant response rating ([2]; 500 g ai/ha): 100 | Plant response rating (0 to 100), Blackgrass ([3]; 125 g ai/ha): 0 | Plant response rating (0 to 100), Blackgrass ([3]; 250 g ai/ha): 5 | Plant response rating, Blackgrass ([3]; 31 g ai/ha, 13 to 15 days): 0 | Plant response rating, Blackgrass ([3]; 62 g ai/ha): 0 | Plant response rating (0 to 100), Wheat ([4]; 125 g ai/ha): 0 | Plant response rating (0 to 100), Wheat ([4]; 250 g ai/ha): 5 | Plant response rating, Wheat ([4]; 31 g ai/ha, 13 to 15 days): 0 | Plant response rating, Wheat ([4]; 62 g ai/ha): 0 | Plant response rating (0 to 100), Corn ([5]; 125 g ai/ha): 15 | Plant response rating (0 to 100), Corn ([5]; 250 g ai/ha): 20 | Plant response rating, Corn ([5]; 31 g ai/ha, 13 to 15 days): 10 | Plant response rating, Corn ([5]; 62 g ai/ha): 10 | Plant response rating (0 to 100), Foxtail, Giant ([6]; 125 g ai/ha): 10 | Plant response rating (0 to 100), Foxtail, Giant ([6]; 250 g ai/ha): 20 | Plant response rating, Foxtail, Giant ([6]; 31 g ai/ha, 13 to 15 days): 5 | Plant response rating, Foxtail, Giant ([6]; 62 g ai/ha): 5 | Plant response rating (0 to 100), Nutsedge, Yellow ([7]; 125 g ai/ha): 0 | Plant response rating (0 to 100), Nutsedge, Yellow ([7]; 250 g ai/ha): 0 | Plant response rating, Nutsedge, Yellow ([7]; 31 g ai/ha, 13 to 15 days): 0 | Plant response rating, Nutsedge, Yellow ([7]; 62 g ai/ha): 0 | Plant response rating (0 to 100), Barnyardgrass ([8]; 125 g ai/ha): 5 | Plant response rating (0 to 100), Barnyardgrass ([8]; 250 g ai/ha): 15 | Plant response rating, Barnyardgrass ([8]; 31 g ai/ha, 13 to 15 days): 0 | Plant response rating, Barnyardgrass ([8]; 62 g ai/ha): 5 | Plant response rating (0 to 100), Oat, Wild ([9]; 125 g ai/ha): 10 | Plant response rating (0 to 100), Oat, Wild ([9]; 250 g ai/ha): 10 | Plant response rating, Oat, Wild ([9]; 31 g ai/ha, 13 to 15 days): 0 | Plant response rating, Oat, Wild ([9]; 62 g ai/ha): 0 | Plant response rating (0 to 100), Chickweed ([10]; 125 g ai/ha): 50 | Plant response rating (0 to 100), Chickweed ([10]; 250 g ai/ha): 50 | Plant response rating, Chickweed ([10]; 31 g ai/ha, 13 to 15 days): 25 | Plant response rating, Chickweed ([10]; 62 g ai/ha): 30

N#Cc1cccc(Oc2ncc(F)cn2)c1-n1cc(Br)cn1 [Compound 62]
Plant response rating, Crabgrass, Large [1, 11]: 90 | Crabgrass, Large plant response rating [1, 12]: 100 | Plant response rating, Pigweed [2]: 100 | Pigweed plant response rating ([2]; 500 g ai/ha): 100 | Plant response rating (0 to 100), Blackgrass ([3]; 125 g ai/ha): 30 | Plant response rating (0 to 100), Blackgrass ([3]; 250 g ai/ha): 50 | Plant response rating, Blackgrass ([3]; 31 g ai/ha, 13 to 15 days): 0 | Plant response rating, Blackgrass ([3]; 62 g ai/ha): 5 | Plant response rating (0 to 100), Wheat ([4]; 125 g ai/ha): 5 | Plant response rating (0 to 100), Wheat ([4]; 250 g ai/ha): 20 | Plant response rating, Wheat ([4]; 31 g ai/ha, 13 to 15 days): 0 | Plant response rating, Wheat ([4]; 62 g ai/ha): 0 | Plant response rating (0 to 100), Corn ([5]; 125 g ai/ha): 15 | Plant response rating (0 to 100), Corn ([5]; 250 g ai/ha): 20 | Plant response rating, Corn ([5]; 31 g ai/ha, 13 to 15 days): 5 | Plant response rating, Corn ([5]; 62 g ai/ha): 15 | Plant response rating (0 to 100), Foxtail, Giant ([6]; 125 g ai/ha): 20 | Plant response rating (0 to 100), Foxtail, Giant ([6]; 250 g ai/ha): 25 | Plant response rating, Foxtail, Giant ([6]; 31 g ai/ha, 13 to 15 days): 5 | Plant response rating, Foxtail, Giant ([6]; 62 g ai/ha): 10 | Plant response rating (0 to 100), Nutsedge, Yellow ([7]; 125 g ai/ha): 5 | Plant response rating (0 to 100), Nutsedge, Yellow ([7]; 250 g ai/ha): 15 | Plant response rating, Nutsedge, Yellow ([7]; 31 g ai/ha, 13 to 15 days): 0 | Plant response rating, Nutsedge, Yellow ([7]; 62 g ai/ha): 5 | Plant response rating (0 to 100), Barnyardgrass ([8]; 125 g ai/ha): 5 | Plant response rating (0 to 100), Barnyardgrass ([8]; 250 g ai/ha): 10 | Plant response rating, Barnyardgrass ([8]; 31 g ai/ha, 13 to 15 days): 0 | Plant response rating, Barnyardgrass ([8]; 62 g ai/ha): 5 | Plant response rating (0 to 100), Oat, Wild ([9]; 125 g ai/ha): 30 | Plant response rating (0 to 100), Oat, Wild ([9]; 250 g ai/ha): 35 | Plant response rating, Oat, Wild ([9]; 31 g ai/ha, 13 to 15 days): 0 | Plant response rating, Oat, Wild ([9]; 62 g ai/ha): 0 | Plant response rating (0 to 100), Chickweed ([10]; 125 g ai/ha): 75 | Plant response rating (0 to 100), Chickweed ([10]; 250 g ai/ha): 90 | Plant response rating, Chickweed ([10]; 31 g ai/ha, 13 to 15 days): 50 | Plant response rating, Chickweed ([10]; 62 g ai/ha): 50

CC(=NO)c1cn(-c2c(Br)cccc2Oc2ncc(Cl)cn2)nn1 [Compound 115]
Plant response rating, Crabgrass, Large ([1]; 1000 g ai/ha, 0 to 100 scale, 0 no effect, 100 complete control): 100 | Pigweed plant response rating ([2]; 1000 g ai/ha): 100 | Plant response rating (0 to 100), Blackgrass [3, 13]: 0 | Plant response rating (0 to 100), Blackgrass [3, 14]: 0 | Plant response rating (0 to 100), Blackgrass [3, 15]: 0 | Plant response rating, Blackgrass ([3]; 31 g ai/ha, 13 to 15 days): 5 | Plant response rating (0 to 100), Wheat [4, 14]: 0 | Plant response rating (0 to 100), Wheat [4, 15]: 0 | Plant response rating (0 to 100), Corn [5, 13]: 5 | Plant response rating (0 to 100), Corn [5, 14]: 10 | Plant response rating (0 to 100), Corn [5, 15]: 5 | Plant response rating (0 to 100), Foxtail, Giant [6, 14]: 5 | Plant response rating (0 to 100), Foxtail, Giant [6, 15]: 5 | Plant response rating (0 to 100), Nutsedge, Yellow [7, 14]: 0 | Plant response rating (0 to 100), Nutsedge, Yellow [7, 15]: 0 | Plant response rating (0 to 100), Barnyardgrass [8, 13]: 0 | Plant response rating (0 to 100), Barnyardgrass [8, 14]: 0 | Plant response rating (0 to 100), Barnyardgrass [8, 15]: 0 | Plant response rating, Barnyardgrass ([8]; 31 g ai/ha, 13 to 15 days): 5 | Plant response rating (0 to 100), Oat, Wild [9, 14]: 0 | Plant response rating (0 to 100), Oat, Wild [9, 15]: 0 | Plant response rating (0 to 100), Chickweed [10, 13]: 0 | Plant response rating (0 to 100), Chickweed [10, 14]: 5 | Plant response rating (0 to 100), Chickweed [10, 15]: 5

From patent US9695155B2, “Herbicidal substituted pyrimidinyloxy benzene compounds” (E. I. DU PONT DE NEMOURS AND COMPANY, priority 2013, dated 2017)
